Our source for the IC50 values is patent US20120015925A1, “NOVEL BENZOTHIAZEPINE AND BENZOTHIEPINE COMPOUNDS” (ASAHI KASEI PHARMA CORPORATION, priority 2004, published 2012).

This experiment addresses T1, human IBAT (Homo sapiens, UniProt Q12908).
T1 sequence (Q12908 1-348): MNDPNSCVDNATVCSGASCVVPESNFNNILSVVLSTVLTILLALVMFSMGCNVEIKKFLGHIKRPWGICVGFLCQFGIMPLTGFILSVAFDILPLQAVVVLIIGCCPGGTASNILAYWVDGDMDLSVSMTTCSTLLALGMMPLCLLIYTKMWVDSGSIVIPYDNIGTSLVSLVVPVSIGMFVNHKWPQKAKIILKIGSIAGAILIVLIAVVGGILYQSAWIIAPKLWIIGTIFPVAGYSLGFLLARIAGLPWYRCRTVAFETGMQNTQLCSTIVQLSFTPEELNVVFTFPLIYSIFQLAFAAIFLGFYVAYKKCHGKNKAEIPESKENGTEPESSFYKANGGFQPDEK
The experiment can be described thus: In vitro assay using Cos 7 cells, transiently expressed human IBAT. Particulars: [3H]-taurocholate 8 μM uptake, 37° C., 60 minutes. The format is cell-based. As for the experimental part:
In the present Test Example, an in vitro assay of compounds using Cos 7 cells as to inhibitory activity on transiently expressed human IBAT or rat IBAT transporter was performed according to the method described in Am. J. Physiol., 274, G157-169.
That is, […] cells/well of Cos 7 cells were seeded in a 24-well plate, and after one day, the cells were transfected with 0.3 μg/well of cDNA of human IBAT or rat IBAT using FuGENE6 (supplied from Roche). After culturing for one day after the transfection, the cells were washed once with the assay buffer, i.e., Hanks buffer containing 25 mM glucose and 10 mM HEPES (pH 7.4). The assay buffer was then replaced with the assay buffer containing the test compound. [^3H]-Taurocholate at a final concentration of 8 μM was added thereto and incubated at 37° C. for 60 minutes so that [^3H]-taurocholate was taken into Cos 7 cells by the action of human IBAT or rat IBAT. The cells were washed twice with the assay buffer containing 1 mM taurocholate, and subsequently lysed with 0.2 M NaOH to stop the reaction. The cell lysate was added to 4 mL of liquid scintillation cocktail, which was then thoroughly vortexed. Then the radioactivity was measured using the liquid scintillation counter.
For `CCCCC1(CCCC)CS(=O)(=O)c2ccc(N(C)C)cc2C(c2cccc(NC(=S)Nc3ccc(C[n+]4cccc(CC)c4)cc3)c2)N1` (racemic) [EXAMPLE 3722], 39 nM corresponded to half-maximal inhibition (IC50). This lies in the double-digit nanomolar range.
The figure for `C=CC[N+](C)(C)Cc1ccc(NC(=S)Nc2cccc(C3NC(CCCC)(CCCC)CS(=O)(=O)c4ccc(N(C)C)cc43)c2)cc1` (centres unmarked) [EXAMPLE 3429] is 55 nM.
The figure for `CCCCC1(CCCC)CS(=O)(=O)c2ccc(N(C)C)cc2C(c2cccc(NC(=S)Nc3ccc(C[N+](C)(C)CC(C)O)cc3)c2)N1` (racemic) [EXAMPLE 3454] is 68 nM; for `CCCCC1(CCCC)CS(=O)(=O)c2ccc(N(C)C)cc2C(c2cccc(NC(=S)Nc3ccc(C[N+]45CCC(CC4)CC5)cc3Cl)c2)N1` (centres unmarked) [EXAMPLE P320] it is 41 nM.
The figure for `CCCCC1(CCCC)CS(=O)(=O)c2ccc(N(C)C)cc2C(c2cccc(NC(=S)Nc3ccc(C[n+]4ccc(C(CC)CC)cc4)cc3)c2)N1` (centres unmarked) [EXAMPLE 3714] is 58 nM; for `CCCCC1(CCCC)CS(=O)(=O)c2ccc(N(C)C)cc2C(c2cccc(NC(=S)Nc3ccc(C[n+]4ccc(-c5ccccc5)cc4)cc3Cl)c2)N1` (centres unmarked) [EXAMPLE P380] it is 18 nM.
For the compound `CCCCCC[N+](C)(C)Cc1ccc(NC(=S)Nc2cccc(C3NC(CCCC)(CCCC)CS(=O)(=O)c4ccc(N(C)C)cc43)c2)cc1` (centres unmarked) [EXAMPLE 3410], the IC50 (usually the midpoint of a concentration-inhibition curve) stood at 68 nM. Against the preceding compound, the IC50 is about 3.8-fold higher.
The figure for `CCCCCCCC[N+](C)(C)Cc1ccc(NC(=S)Nc2cccc(C3NC(CCCC)(CCCC)CS(=O)(=O)c4ccc(N(C)C)cc43)c2)cc1` (centres unmarked) [EXAMPLE 3412] is 75 nM; for `CCCCC1(CCCC)CS(=O)(=O)c2ccc(N(C)C)cc2C(c2cccc(NC(=S)Nc3ccc(C[N+](C)(C)Cc4ccccc4)cc3Br)c2)N1` (centres unmarked) [EXAMPLE P334] it is 37 nM; for `CCCCC1(CCCC)CS(=O)(=O)c2ccc(N(C)C)cc2C(c2cccc(NC(=S)Nc3ccc(C[N+]45CCC(CC4)C(=O)C5)cc3)c2)N1` (centres unmarked) [EXAMPLE 3698] it is 72 nM.
With `CCCCC1(CCCC)CS(=O)(=O)c2ccc(N(C)C)cc2C(c2cccc(NC(=S)Nc3ccc(C[n+]4ccc(N(C)C)cc4)cc3)c2)N1` (racemic) [EXAMPLE 4210], the midpoint of inhibition, the IC50, lay at 100 nM.
Consider `CCCCC1(CCCC)CS(=O)(=O)c2ccc(N(C)C)cc2C(c2cccc(NC(=S)Nc3ccc(C[N+]4(Cc5ccccc5)CCCCC4)cc3)c2)N1` (centres unmarked) [EXAMPLE 3593], for which the IC50 was found to be 70 nM.
The figure for `CCCCC1(CCCC)CS(=O)(=O)c2ccc(N(C)C)cc2C(c2cccc(NC(=S)Nc3ccc(C[n+]4ccc(C(C)(C)O)cc4)cc3)c2)N1` (centres unmarked) [EXAMPLE 5412] is 37 nM; for `CCCCC1(CCCC)CS(=O)(=O)c2ccc(N(C)C)cc2C(c2cccc(NC(=S)Nc3ccc(C[n+]4ccccc4CCOC(C)C)cc3)c2)N1` (centres unmarked) [EXAMPLE 5420] it is 68 nM.
The figure for `CCCCC1(CCCC)CS(=O)(=O)c2ccc(N(C)C)cc2C(c2cccc(NC(=S)Nc3c(C)cc(C[N+]45CCC(c6ccccc6)(CC4)CC5)cc3C)c2)N1` (centres unmarked) [EXAMPLE P350] is 40 nM; for `CCCCC1(CCCC)CS(=O)(=O)c2ccc(N(C)C)cc2C(c2cccc(NC(=S)Nc3ccc(C[N+](C)(C)Cc4cccs4)cc3)c2)N1` (racemic) [EXAMPLE 3449] it is 55 nM; for `CCCCC1(CCCC)CS(=O)(=O)c2ccc(N(C)C)cc2C(c2cccc(NC(=S)Nc3c(C)cc(C[n+]4ccc(-c5ccccc5)cc4)cc3C)c2)N1` (centres unmarked) [EXAMPLE P386] it is 60 nM.
Consider `CCCCC1(CCCC)CS(=O)(=O)c2ccc(N(C)C)cc2C(c2cccc(NC(=S)Nc3ccc(C[n+]4ccc(-c5ccccc5)cc4)cc3F)c2)N1` (centres unmarked) [EXAMPLE P378], for which inhibition was half-maximal at 34 nM (IC50).
The figure for `CCCCC1(CCCC)CS(=O)(=O)c2ccc(N(C)C)cc2C(c2cccc(NC(=S)Nc3ccc(C[n+]4cccc(-c5cccs5)c4)cc3)c2)N1` (racemic) [EXAMPLE 3726] is 73 nM; for `CCCCC1(CCCC)CS(=O)(=O)c2ccc(N(C)C)cc2C(c2cccc(NC(=S)CCCCC[N+]34CCC(CC3)C(O)C4)c2)N1` (centres unmarked) [EXAMPLE 3854] it is 28 nM.
The figure for `CCCCC1(CCCC)CS(=O)(=O)c2ccc(N(C)C)cc2C(c2cccc(NC(=S)Nc3ccc(C[N+]4(Cc5ccccc5)CCCC(O)C4)cc3)c2)N1` (centres unmarked) [EXAMPLE 3604] is 45 nM.
The compound `CCCCC1(CCCC)CS(=O)(=O)c2ccc(N(C)C)cc2C(c2cccc(NC(=S)Nc3ccc(C[N+]45CCC(CC4)CC5)cc3Br)c2)N1` (centres unmarked) [EXAMPLE P322] showed an IC50 of 62 nM. The IC50 values of the last two compounds are within 1.5-fold of each other.
The figure for `C#CC[N+](C)(C)Cc1ccc(NC(=S)Nc2cccc(C3NC(CCCC)(CCCC)CS(=O)(=O)c4ccc(N(C)C)cc43)c2)cc1` (centres unmarked) [EXAMPLE 3433] is 55 nM.
The figure for `CCCCC1(CCCC)CS(=O)(=O)c2ccc(N(C)C)cc2C(c2cccc(NC(=S)Nc3ccc(C[N+]45CCC(CC4)CC5)c(Cl)c3)c2)N1` (centres unmarked) [EXAMPLE P321] is 45 nM.
The figure for `CCCCC1(CCCC)CS(=O)(=O)c2ccc(N(C)C)cc2C(c2cccc(NC(=S)Nc3ccc(C[N+]45CCC(CC4)C(O)C5)cc3)c2)N1` (racemic) [EXAMPLE 3697] is 69 nM; for `CCCCC1(CCCC)CS(=O)(=O)c2ccc(N(C)C)cc2C(c2cccc(NC(=S)Nc3ccc(C[N+]4(CC)CCCC4)cc3)c2)N1` (centres unmarked) [EXAMPLE 3568] it is 94 nM; for `CCCCCCCCC[N+](C)(C)Cc1ccc(NC(=S)Nc2cccc(C3NC(CCCC)(CCCC)CS(=O)(=O)c4ccc(N(C)C)cc43)c2)cc1` (centres unmarked) [EXAMPLE 3413] it is 73 nM.
With `CCCCC1(CCCC)CS(=O)(=O)c2ccc(N(C)C)cc2C(c2cccc(NC(=S)Nc3c(C)cc(C[N+](C)(C)Cc4ccccc4)cc3C)c2)N1` (centres unmarked) [EXAMPLE P338], the IC50 is 47 nM.
The figure for `CCC#CC[N+](C)(C)Cc1ccc(NC(=S)Nc2cccc(C3NC(CCCC)(CCCC)CS(=O)(=O)c4ccc(N(C)C)cc43)c2)cc1` (centres unmarked) [EXAMPLE 3434] is 71 nM.
Compound `CCCCC1(CCCC)CS(=O)(=O)c2ccc(N(C)C)cc2C(c2cccc(NC(=S)Nc3ccc(C[n+]4ccc(C(C)(C)C)cc4)c([N+](=O)[O-])c3)c2)N1` (centres unmarked) [EXAMPLE P373] displayed an IC50 of 97 nM.
The figure for `CCCCC(CCCC)c1cc[n+](Cc2ccc(NC(=S)Nc3cccc(C4NC(CCCC)(CCCC)CS(=O)(=O)c5ccc(N(C)C)cc54)c3)cc2)cc1` (centres unmarked) [EXAMPLE 3716] is 89 nM.
The figure for `CCCCC1(CCCC)CS(=O)(=O)c2ccc(N(C)C)cc2C(c2cccc(NC(=S)Nc3ccc(C[n+]4ccc(-c5ccccc5)cc4)c(Cl)c3)c2)N1` (centres unmarked) [EXAMPLE P381] is 28 nM; for `CCCCC1(CCCC)CS(=O)(=O)c2ccc(N(C)C)cc2C(c2cccc(NC(=S)NCCC[N+]3(Cc4ccccc4)CCC(CCO)CC3)c2)N1` (centres unmarked) [EXAMPLE 593] it is 92 nM; for `CCCCC1(CCCC)CS(=O)(=O)c2ccc(N(C)C)cc2C(c2cccc(NC(=S)Nc3ccc(C[n+]4cccc(Cl)c4)cc3)c2)N1` (centres unmarked) [EXAMPLE 5418] it is 69 nM.
In the case of `CCCCC1(CCCC)CS(=O)(=O)c2ccc(N(C)C)cc2C(c2cccc(NC(=S)Nc3ccc(C[N+]4(C)CCCCC4)cc3)c2)N1` (racemic) [EXAMPLE 3587], the IC50 is 70 nM.
Turning to `CCCCC1(CCCC)CS(=O)(=O)c2ccc(N(C)C)cc2C(c2cccc(NC(=S)Nc3ccc(C[N+](C)(C)Cc4ccccc4)cc3Cl)c2)N1` (centres unmarked) [EXAMPLE P332], the midpoint of inhibition, the IC50, lay at 46 nM.
The figure for `CCCCC1(CCCC)CS(=O)(=O)c2ccc(N(C)C)cc2C(c2cccc(NC(=S)Nc3ccc(C[N+](C)(C)Cc4ccccc4)cc3C)c2)N1` (centres unmarked) [EXAMPLE P328] is 38 nM; for `CCCCC1(CCCC)CS(=O)(=O)c2ccc(N(C)C)cc2C(c2cccc(NC(=S)Nc3ccc(C[N+]45CCC(CC4)CC5)c(C(F)(F)F)c3)c2)N1` (centres unmarked) [EXAMPLE P324] it is 37 nM; for `CCCCC1(CCCC)CS(=O)(=O)c2ccc(N(C)C)cc2C(c2cccc(NC(=S)Nc3ccc(C[n+]4ccc(-c5ccccc5)cc4)c(Br)c3)c2)N1` (centres unmarked) [EXAMPLE P383] it is 26 nM.
With `CCCCC1(CCCC)CS(=O)(=O)c2ccc(N(C)C)cc2C(c2cccc(NC(=S)Nc3c(C)cc(C[N+]45CCC(CC4)CC5)cc3C)c2)N1` (centres unmarked) [EXAMPLE P326], inhibition was half-maximal at 100 nM (IC50).
The figure for `CCCCC1(CCCC)CS(=O)(=O)c2ccc(N(C)C)cc2C(c2cccc(NC(=S)Nc3ccc(C[n+]4ccc(-c5ccccc5)cc4)c(F)c3)c2)N1` (centres unmarked) [EXAMPLE P379] is 26 nM; for `CCCCC1(CCCC)CS(=O)(=O)c2ccc(N(C)C)cc2C(c2cccc(NC(=S)Nc3ccc(C[N+](C)(C)C(C)c4ccccc4)cc3)c2)N1` (centres unmarked) [EXAMPLE 3441] it is 85 nM; for `CCCCC1(CCCC)CS(=O)(=O)c2ccc(N(C)C)cc2C(c2cccc(NC(=S)Nc3ccc(C[n+]4ccc(-c5ccccc5)cc4)c(C(F)(F)F)c3)c2)N1` (centres unmarked) [EXAMPLE P384] it is 32 nM.
Regarding `CCCCC1(CCCC)CS(=O)(=O)c2ccc(N(C)C)cc2C(c2cccc(NC(=S)Nc3ccc(C[N+](C)(CCC)CCC)cc3)c2)N1` (racemic) [EXAMPLE 3426], the IC50 worked out at 58 nM.
